{"source": "paper PMC7661967", "about": "“Magnetic Resonance Molecular Imaging of Extradomain B Fibronectin Improves Imaging of Pancreatic Cancer Tumor Xenografts” (Frontiers in Oncology, 2020)", "key": {"[1]": {"tested_on": "aggressive breast and prostate cancers", "conditions": "cited from earlier work", "description": "(§1) ZD2 targeted MRI contrast agents have been developed and tested for MRMI of EDB-FN in aggressive breast cancer and prostate cancer models ([15], [16], [20]). The targeted contrast agent ZD2-N3-Gd(HP-DO3A) (MT218) was developed by conjugating ZD2 peptide to a clinical macrocyclic contrast agent Gd(HP-DO3A) ([16], [20]). […] The ..."}, "[2]": {"conditions": "cited from earlier work", "description": "as §1"}, "[3]": {"tested_on": "BxPC3-GFP-Luc intrapancreatic tumor xenografts", "assay": "MRMI of BxPC3-GFP-Luc intrapancreatic tumor xenografts (3T)", "assay_type": "in vivo, human cells in female nu/nu mice", "protocol": "(§2) For flank xenograft models, 4 × 10^6 Capan-1 cells suspended in 100 μL of a 6 mg/mL Matrigel (Corning, Corning, NY) solution was injected subcutaneously into the flank of 8-week-old female nu/nu mice. The tumor bearing mice were imaged after tumor volumes exceeded 300 mm^3. For orthotopic intrapancreatic models, the pancreas of 4-week-old female nu/nu mice were surgically exposed via a ~10 mm incision in the left ventral abdomen and the application of gentle pressure to express the spleen and associated pancreatic tissue. 1 × 10^6 BxPC3-GFP-Luc or PANC-1-GFP-Luc cells suspended in 100 μL of a Matrigel solution (6 mg/mL) was injected into the pancreatic tissue using an insulin syringe with a 31G needle. Any leakage of cell suspension was lavaged with DPBS twice to prevent intraabdominal seeding PaCa cells. The peritoneal fascia was closed with absorbable stitches, and the dermis closed with stainless steel wound clips. Prior to imaging, growth of tumor was verified by bioluminescence imaging with intraperitoneal injection of d-luciferin on IVIS Spectrum system (Perkin Elmer, Waltham, MA).\n(§3) Mice bearing intrapancreatic tumors were anesthetized and a tail vein catheter was inserted. Image acquisition was performed on a MR Solutions 3T MRS 3000 scanner with a mouse radiofrequency coil. Axial images were obtained using a Fast Spin Echo (FSE) MRI sequence (305 ms TR, 11 ms TE, 90° FA, 4 cm × 4 cm FOV, 1 mm slice thickness, 10 slices, echo train length = 4, echo spacing = 11 ms, 4 averages, 256 × 256 matrix, 0.0156 × […] cm/pixel resolution) with respiratory gating. Images were acquired before contrast and at different time points after contrast injection at a dose of 0.1 mmol/kg (100 μL). For competitive binding experiments, a 5:1 molar ratio of free ZD2 peptide to MT218 was injected in mice bearing intrapancreatic BxPC3 tumor xenografts (n = 3) at a dose of 0.1 mmol MT218/kg (100 μL). Images obtained on the MR Solutions 3T scanner were normalized using the Surscalereader.exe (MR Solutions, Guildford, UK) program supplied.\n(§4) Image files were exported and analyzed in Horus software. ROIs were drawn in the tumor, liver, kidney, and muscle. Muscle ROIs were taken from the muscle, with other structures (liver, kidney, tumor) identified after comparison with published images and comparison with anatomical landmarks or bioluminescent imaging. Pancreatic lesions were localized using the liver, kidney, and spleen as anatomical landmarks. […] Size of ROIs drawn for image analysis are summarized in Supplementary Table 1. The contrast-to-noise ratio of the tumor (CNR) was calculated using the following equation, where σnoise is the standard deviation of intensities from an ROI drawn outside of the mouse body:\n(§5) CNR=Mean IntensityTumor-Mean IntensityMuscle/σnoise.\n(§6) Image subtraction was performed on images adjusted to the same window and level in FIJI open-source software.\n(§7) Image contrast was reported as fold enhancement of contrast to noise ratio of post-contrast images over pre-contrast images using Fold Enhancement = CNRpost/CNRpre. Statistical analysis of CNR was performed in Minitab Express (Minitab Inc., State College, PA). One-way ANOVA with Fisher Individual Tests for Differences of Means post-hoc testing was performed to determine statistical significance between >2 means (p < 0.05). Student's T test was used to determine statistical significance between 2 means (p < 0.05)."}, "[4]": {"assay": "Liver CNR in contrast-enhanced MRI", "assay_type": "in vivo, nu/nu mice", "conditions": "for liver CNR, MT218 vs Gd(HP-DO3A): 0.1 mmol/kg, p > 0.05", "protocol": "Flank tumor-bearing mice were anesthetized and a tail vein catheter inserted. MR image acquisition was performed on a 7T Biospin (Bruker, Billerica, MA) preclinical small animal scanner with a volume radiofrequency coil. Axial images were obtained using a multi-spin multi-echo (MSME) MRI sequence (500 ms TR, 8.1 ms TE, 90° FA, 4.50 cm × 4.50 cm FOV, 1.50 mm slice thickness, 16 slices, 2 averages, 200 × 200 matrix, 0.0225 × 0.0225 cm/pixel resolution). Contrast agents were injected at a dose of 0.1 mmol/kg (100 μL) via the tail vein catheter, followed by a saline flush. Images of the tumors were acquired before contrast and at various time points after contrast administration. Gd(HP-DO3A) was used as a control.\nas §3\nImage files were exported and analyzed in Horus software. ROIs were drawn in the tumor, liver, kidney, and muscle. […] The contrast-to-noise ratio of the tumor (CNR) was calculated using the following equation, where σnoise is the standard deviation of intensities from an ROI drawn outside of the mouse body:\nThe contrast to noise ratio of the liver (CNR) was calculated using the following equation: […]"}, "[5]": {"tested_on": "PANC-1-GFP-Luc intrapancreatic tumor xenografts", "assay": "MRMI of PANC-1-GFP-Luc intrapancreatic tumor xenografts (3T)", "assay_type": "in vivo, human cells in female nu/nu mice", "protocol": "as §2, §3, §4, §5, §6, §7"}, "[6]": {"conditions": "0.1 mmol/kg, 10 min post-injection, n = 3"}, "[7]": {"conditions": "0.1 mmol/kg, 10 min post-injection, n = 6"}}, "note": "Several values for one entry are separate records, joined by “and”; a condition that tells them apart may be missing. Equal values may be shown once. Entries after “also recorded” stand apart in the source; their conditions may differ. No end group written: not given here.", "data": [{"substance": "ZD2-N3-Gd(HP-DO3A) (TVRTSAD; also: conjugated via N3 to Gd(HP-DO3A) contrast agent, end not given here) [MT218, small molecular conjugate of ZD2 peptide to a macrocyclic clinical MRI contrast agent Gd(HP-DO3A)]", "values": [{"measurement": "contrast enhancement", "setting": "[1]", "result": "superior contrast enhancement"}, {"measurement": "T1 relaxivity compared with Gd(HP-DO3A), in words", "setting": "[2]", "result": "higher T1 relaxivity than Gd(HP-DO3A)"}, {"measurement": "tumor CNR increase (post/pre)", "setting": "[3]; 0.1 mmol/kg, 10 min post-injection (maximum for MT218), n = 3", "result": 5.3, "unit": "fold"}, {"measurement": "tumor contrast enhancement", "setting": "[3]; [6]", "result": "strong contrast enhancement"}, {"measurement": "tumor enhancement, subtraction images", "setting": "[3]; [6]", "result": "strong enhancement and clear delineation"}, {"measurement": "tumor contrast enhancement", "setting": "[3]; 0.1 mmol/kg, 20 min post-injection, n = 3", "result": "decreased"}, {"measurement": "tumor contrast enhancement", "setting": "[3]; 0.1 mmol/kg, 30 min post-injection, n = 3", "result": "returned to background levels"}, {"measurement": "MT218 CNR relative to control", "setting": "[3]; BxPC3-GFP-Luc intrapancreatic, control Gd(HP-DO3A), p < 0.05", "result": 212, "unit": "%"}, {"measurement": "CNR relative to clinical agent", "setting": "[3]; BxPC3-GFP-Luc intrapancreatic, vs Gd(HP-DO3A), p < 0.05", "result": 2.1, "unit": "times"}, {"measurement": "CNR increase", "setting": "[3]; MT218 0.1 mmol/kg co-injected with 5-fold excess free ZD2 peptide, n = 3", "result": "approximately 2.5 fold"}, {"measurement": "contrast enhancement, competitive binding experiment", "setting": "[3]; MT218 0.1 mmol/kg co-injected with 5-fold excess free ZD2 peptide, vs MT218 alone, n = 3", "result": "significant reduction of contrast enhancement"}, {"measurement": "CNR with free ZD2 peptide compared with MT218 alone", "setting": "[3]; MT218 co-injected with 5-fold free ZD2 peptide, n = 3, p < 0.05", "result": "significant decrease in tumor CNR; also recorded: significantly lower"}, {"measurement": "size of smallest tumor detected / better visualized", "setting": "[3]; smallest average size / area of tumor nodules, cf. BxPC3 + MT218 ROI in Supplementary Table 1", "result": "6.1 mm^2 and 6.13 mm^2"}, {"measurement": "liver CNR, MT218 vs Gd(HP-DO3A)", "setting": "[4]; BxPC3-GFP-Luc and PANC-1-GFP-Luc intrapancreatic models", "result": "No difference in CNR"}, {"measurement": "liver CNR, MT218 vs Gd(HP-DO3A)", "setting": "[4]; Capan-1 flank model", "result": "No significant difference in CNR"}, {"measurement": "non-specific signal enhancement in hepatic tissue", "setting": "[4]; MRMI with MT218", "result": "Minimal non-specific signal enhancement"}, {"measurement": "intratumoral CNR increase (post/pre)", "setting": "[5]; [7]", "result": "approximately 3.9 fold"}, {"measurement": "tumor contrast enhancement", "setting": "[5]; [7]", "result": "substantial contrast enhancement"}, {"measurement": "tumor signal enhancement, subtraction images", "setting": "[5]; [7]", "result": "substantial signal enhancement"}, {"measurement": "MT218 CNR as percent of Gd(HP-DO3A) control", "setting": "[5]; PANC-1-GFP-Luc intrapancreatic, control Gd(HP-DO3A), p < 0.05", "result": 164, "unit": "%"}, {"measurement": "CNR relative to clinical agent", "setting": "[5]; PANC-1-GFP-Luc intrapancreatic, vs Gd(HP-DO3A), p < 0.05", "result": 1.6, "unit": "times"}]}]}
